Measurements reported in patent publication US11371099B2, “HEATR1 as a marker for chemoresistance” (MAYO FOUNDATION FOR MEDICAL EDUCATION AND RESEARCH, priority 2015, dated 2022).

Columns and labels:
[1] = patients with advanced solid tumors; cited from earlier work
[2] = system: pancreatic tumor; conditions: dinaciclib combined with MK-2206; cited from earlier work
[3] = system: SU86.86, ASPC-1, and PANC-1 cells; experiment: MTS cell survival assay in pancreatic cancer cells transfected with control or HEATR1 siRNA/shRNA; format: cell-based, human; conditions: HEATR1 siRNA or shRNA vs control
Protocol: FIG. 1. […] (A) Cells were transfected with indicated siRNA and treated with Gemcitabine. Cell survival was determined. […] (C) SU86.86 cells were transfected with indicated siRNA and treated. Cell survival was determined.
(A) PANC-1 and ASPC-1 cells stably expressing control or HEATR1 shRNA treated with gemcitabine. Cell survival was determined as described in FIG. 1A. The data presented are mean±SD for six independent experiments. […] (B) PANC-1 and ASPC-1 cells were transfected with control or HEATR1 siRNA and then treated with the indicated drugs. Cell survival was determined as described in A. The data presented are mean±SD for six independent experiments.
Human pancreatic cancer cell lines SU86.86, ASPC-1, and PANC-1 were purchased from ATCC in 2014. The identities of these cell lines were confirmed by the medical genome facility at Mayo Clinic Center using short tandem repeat profiling upon receipt. The cell lines were maintained in RPMI 1640 with 10% FBS. HEATR1 cDNA was purchased from Thermo Scientific and full length and mutants were subcloned into pIRES-EGFP. PP2A-Aα, B55α, B56β, Cα were purchased from addgene and subcloned into HA-pcmv and pGex4T-1. HEATR1 siRNA and shRNA were from Dharmacon and Sigma, respectively.
Gemcitabine was from Eli Lilly (Indianapolis, Ind.). Paclitaxel, SN-38, mitomycin c, oxaliplatin and etopside were from Sigma-Aldrich (St. Louis, Mo.). […] Ctrl (Control) or HEATR1 siRNA or shRNA were transfected, and the growth-inhibitory effect was performed as described previously (21). In one embodiment, a MTS assay may be performed by a MTS Cell Proliferation Assay Kit (Colorimetric) (197010); a colorimetric sensitive quantification of viable cells in proliferation and cytotoxicity assays. The assay is based on the reduction of MTS tetrazolium compound by viable cells to generate a colored formazan product that is soluble in cell culture media.

[4] = system: SU86.86 cells; experiment: Apoptosis (cleaved PARP1 western blot) in cells expressing control or HEATR1 shRNA; format: cell-based, human; conditions: control cells vs HEATR1 shRNA cells; 10 μM, 48 hours
Protocol: (A) SU86.86 cells stably expressing control or HEATR1 shRNA treated with gemcitabine (10 μM). Cell lysate were collect at 48 hours and western blotting was performed with indicated antibodies. (B) Cells stably expressing control or HEATR1 shRNA were seeded in each well (5×10^4/well) and cell numbers were counted every 24 hour. Data are represented as the mean±SD of four independent experiments. We prepared cell lysates, performed immunoprecipitation, and immunoblotting as previously described. In brief, cells were lysed with NETN buffer (20 mM Tris-HCl, pH 8.0, 100 mM NaCl, 1 mM EDTA, 0.5% Nonidet P-40) containing 50 mM b-glycerophosphate, 10 mM NaF, and […] each of pepstatin A and aprotinin. Whole cell lysates were pulse-sonicated and obtained by centrifugation. Whole cell lysates were incubated with 2 μg of antibody and protein A or protein G Sepharose beads (Amersham Biosciences) for 2 hr or overnight at 4° C. The immunocomplexes were then washed with NETN buffer for three times and separated by SDS-PAGE. Immunoblotting was performed following standard procedures. GST fusion proteins were bound to glutathione-Sepharose overnight at 4° C. The beads were washed with PBS four times and incubated with cell lysates for 1 h at 4° C. After washing with NETN for three times, the bound proteins were separated by SDS-PAGE and immunoblotted with indicated antibodies.

[5] = system: PANC-1 xenograft tumors; experiment: Tumor xenograft study, PANC-1 cells stably expressing Ctrl or HEATR1 shRNA; format: in vivo, mouse; conditions: Gemcitabine 50 mg/kg i.p. every 3 days; HEATR1 shRNA vs Ctrl
Protocol: Xenograft tumors were dissected and tumor weights were measured after mice were sacrificed (C). ANOVA analysis was performed (Mann-Whitney test) +P<0.05, ++P<0.01 (Ctrl vs KD). […] Representative photographs of indicated xenograft tumors were shown in (E). Female athymic nu/nu mice were obtained from the National Cancer Institute. Experiments were performed under the approval of the Institutional Animal Care and Use Committee at Mayo Clinic. PANC-1 cells stably expressing Ctrl and HEATR1 shRNA were injected subcutaneously in mouse flanks (10^6 cells/mouse flank). Tumor volumes were measured every three days. […] After sacrificing the mice, tumors were surgically removed and weighted.

[6] = system: Akt phosphorylation at Thr308; experiment: Western blot of Akt phosphorylation after serum starvation and serum addition; format: cell-based, human; conditions: SU86.86 cells, pretreated 5 nM
Protocol: (A) Intracellular co-localization of HEATR1 and AKT were observed by using confocal microscopy in Su86.86, PANC-1 and ASPC-1 cells. (B) Cell lysates were subjected to immunoprecipitation with control IgG or anti-HEATR1 antibodies. The immunoprecipitates were then blotted with indicated antibodies. (C) Cells were transfected with control or HEATR1 siRNA, and the interaction between Akt and PDK1 was examined. (D) SU86.86 Cells transfected with control or HEATR1 siRNA were serum starved for 16 hours (0.1% serum), pretreated with DMSO or okadaic acid (5 nM) and then serum was added. Whole-cell lysates were harvested at indicated time and western blotting was performed with indicated antibodies.
We prepared cell lysates, performed immunoprecipitation, and immunoblotting as previously described. In brief, cells were lysed with NETN buffer (20 mM Tris-HCl, pH 8.0, 100 mM NaCl, 1 mM EDTA, 0.5% Nonidet P-40) containing 50 mM b-glycerophosphate, 10 mM NaF, and […] each of pepstatin A and aprotinin. Whole cell lysates were pulse-sonicated and obtained by centrifugation. Whole cell lysates were incubated with 2 μg of antibody and protein A or protein G Sepharose beads (Amersham Biosciences) for 2 hr or overnight at 4° C. The immunocomplexes were then washed with NETN buffer for three times and separated by SDS-PAGE. Immunoblotting was performed following standard procedures. […]

[7] = system: Akt; conditions: cited from earlier work
[8] = system: Akt; conditions: cited from earlier work; remark: listed apart in the source
[9] = system: Akt phospho-Thr308 and phospho-Ser473; conditions: in vivo, both sensitive and resistant tumors; cited from earlier work

**Q.** For `NC1(c2ccc(-c3nc4ccn5c(=O)[nH]nc5c4cc3-c3ccccc3)cc2)CCC1` [MK-2206], which Tolerability [1] is on record?
**A.** well tolerated

**Q.** And the “Pancreatic tumor growth and metastases” value [2]?
**A.** dramatically block

**Q.** Which “Cell survival / resistance to drug in cells with HEATR1 knockdown versus control” value [3] does the source give for `COc1cc([C@@H]2c3cc4c(cc3[C@@H](O[C@@H]3O[C@@H]5CO[C@@H](C)O[C@H]5[C@H](O)[C@H]3O)[C@H]3COC(=O)[C@H]23)OCO4)cc(OC)c1O` [etopside] here?
**A.** significantly resistant

**Q.** What does the source list for `Nc1ccn([C@@H]2O[C@H](CO)[C@@H](O)C2(F)F)c(=O)n1` [Gemcitabine]?
**A.** Cell survival / resistance to drug in cells with HEATR1 knockdown versus control [3]: increased resistance; Apoptosis activity induced by drug [4]: stronger apoptosis activity in control cells; Tumor response to drug in xenografts with HEATR1 downregulation [5]: resistance to Gemcitabine

**Q.** For `CC[C@@]1(O)C(=O)OCc2c1cc1n(c2=O)Cc2cc3ccccc3nc2-1` [Camptothecin], which “Cell survival / resistance to drug in cells with HEATR1 knockdown versus control” value [3] is on record?
**A.** significantly resistant

**Q.** Which “Akt phosphorylation at Thr308” value [6] does the source give for `C=C1[C@@H](O)[C@@H]2O[C@]3(CC[C@H](/C=C/[C@@H](C)[C@@H]4CC(C)=C[C@@]5(O[C@H](C[C@@](C)(O)C(=O)O)CC[C@H]5O)O4)O3)CC[C@H]2O[C@@H]1[C@@H](O)C[C@H](C)[C@H]1O[C@@]2(CCCCO2)CC[C@H]1C` [okadaic acid] here?
**A.** significantly increased

**Q.** Which “Cell survival / resistance to drug in cells with HEATR1 knockdown versus control” value [3] does the source give for `O=C1[O][Pt]2([NH][C@@H]3CCCC[C@H]3[NH]2)[O]C1=O` [oxaliplatin] here?
**A.** significantly resistant

**Q.** With `S=C=NCc1ccccc1` [BITC, Benzyl isothiocyanate] as the compound, how does the “Phosphorylation of Akt at both Ser-473 and Ser-308” value [7] read?
**A.** suppresses

**Q.** Which results are given for `CCCCCCCCCCCCc1ccc(S(=O)(=O)Nc2nncs2)cc1` [PHT-427]?
**A.** Akt activity in resistant cancer cells [8]: increase in Akt activity; Akt phospho-Thr308 and phospho-Ser473 in tumors [9]: decreased

**Q.** For `CCc1c2c(nc3ccc(O)cc13)-c1cc3c(c(=O)n1C2)COC(=O)[C@]3(O)CC` [SN-38], which “Cell survival / resistance to drug in cells with HEATR1 knockdown versus control” value [3] is on record?
**A.** significantly resistant

**Q.** For `CO[C@@]12[C@H](COC(N)=O)C3=C(C(=O)C(C)=C(N)C3=O)N1C[C@@H]1N[C@@H]12` [mitomycin c], which “Cell survival / resistance to drug in cells with HEATR1 knockdown versus control” value [3] is on record?
**A.** significantly resistant

**Q.** Which “Cell survival / resistance to drug in cells with HEATR1 knockdown versus control” value [3] does the source give for `CC(=O)O[C@H]1C(=O)[C@@]2(C)[C@H]([C@H](OC(=O)c3ccccc3)[C@]3(O)C[C@H](OC(=O)[C@H](O)[C@@H](NC(=O)c4ccccc4)c4ccccc4)C(C)=C1C3(C)C)[C@]1(OC(C)=O)CO[C@@H]1C[C@@H]2O` [paclitaxel] here?
**A.** significantly resistant
